According to patent publication US10828290B2, “Thiazolecarboxamides and pyridinecarboxamide compounds useful as pim kinase inhibitors” (Incyte Corporation, priority 2013, dated 2020):
Read-outs that look alike come from different tables or passages of the source.

Assays:
Type in all cases: biochemical
Pim-1 = Pim-1 (Homo sapiens (Human), UniProt P11309); assay: Pim-1 kinase assay; details: 1 mM ATP; class symbols; read-out: Pim1 IC50
Protocol: Supplementation of the STOP buffer with beads and stopping the reactions were done under reduced light. Prior to the stopping reactions STOP buffer with beads was pre-incubated for 1 h in the dark at room temperature. After stopping the reactions, plates were incubated for 1 h in the dark at room temperature before reading on a PHERAstar FS plate reader (BMG Labtech) under reduced light.

Pim-2 = Pim-2 (Homo sapiens (Human), UniProt Q9P1W9); assay: Pim-2 kinase assay
Chain of Pim-2 (Q9P1W9 whole entry): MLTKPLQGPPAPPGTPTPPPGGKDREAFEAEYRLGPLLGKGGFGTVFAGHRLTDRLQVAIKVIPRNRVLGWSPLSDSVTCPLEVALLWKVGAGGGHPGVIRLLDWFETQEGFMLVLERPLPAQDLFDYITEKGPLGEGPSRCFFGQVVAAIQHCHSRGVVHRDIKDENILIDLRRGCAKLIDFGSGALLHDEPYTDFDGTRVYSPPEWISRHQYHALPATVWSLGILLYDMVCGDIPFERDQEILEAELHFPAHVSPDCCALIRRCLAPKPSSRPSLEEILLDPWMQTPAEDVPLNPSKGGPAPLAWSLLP
Protocol: Pim-2 kinase assay—20 μL reactions were run in white 384 well polystyrene plates dotted with 0.8 μL compound/DMSO in the assay buffer (50 mM Tris, pH 7.5, 0.01% Tween-20, 5 mM MgCl2, 0.01% BSA, 5 mM DTT), containing 0.05 μM Fluorescein-labeled CREBtide peptide substrate (Invitrogen PV3508), 1 mM ATP, and 1 nM enzyme (Invitrogen PV3649) for 2 h at 25° C. Reactions were stopped by addition of 10 μL TR-FRET Dilution Buffer (Invitrogen PV3574) with 30 mM EDTA and 1.5 nM LanthaScreen Tb-CREB pSer133 antibody (Invitrogen PV3566). After 30 min. incubation at room temperature, plates were read on a PHERAstar FS plate reader (BMG Labtech).
Although the above in vitro assays are conducted at 1 mM ATP compounds can also be evaluated for potency and in vitro activity against PIM targets utilizing Km conditions, where the concentration of ATP is set to the Km value and the assay is more sensitive to PIM inhibition activity.

Pim-3 = Pim-3 (Homo sapiens (Human), UniProt Q86V86); assay: Pim-3 kinase assay; details: 1 mM ATP; class symbols; read-out: Pim3 IC50
Protocol: Pim-1 and Pim-3 kinase assays—20 μL reactions were run in white 384 well polystyrene plates dotted with […] in the assay buffer (50 mM Tris, pH 7.5, 0.01% Tween-20, 5 mM MgCl2, 0.01% BSA, 5 mM DTT), containing 0.05 μM Biotin-labeled BAD peptide substrate (AnaSpec 62269), 1 mM ATP, and 2.5 pM (Pim-1, Invitrogen PV3503) or 1.25 pM (Pim-3, Millipore 14-738) enzyme for 1 h at 25° C. Reactions were stopped by addition of 10 μL STOP Buffer (150 mM Tris, pH=7.5, 150 mM NaCl, 75 mM EDTA, 0.01% Tween-20, 0.3% BSA) supplemented with Phospho-Bad (Ser112) Antibody (Cell Signaling 9291) diluted 666-fold, and Streptavidin donor beads (PerkinElmer 6760002) along with Protein-A acceptor beads (PerkinElmer 6760137) at 15 μg/mL each. Supplementation of the STOP buffer with beads and stopping the reactions were done under reduced light. Prior to the stopping reactions STOP buffer with beads was pre-incubated for 1 h in the dark at room temperature. After stopping the reactions, plates were incubated for 1 h in the dark at room temperature before reading on a PHERAstar FS plate reader (BMG Labtech) under reduced light.

Chain of Pim-1 (P11309 whole entry): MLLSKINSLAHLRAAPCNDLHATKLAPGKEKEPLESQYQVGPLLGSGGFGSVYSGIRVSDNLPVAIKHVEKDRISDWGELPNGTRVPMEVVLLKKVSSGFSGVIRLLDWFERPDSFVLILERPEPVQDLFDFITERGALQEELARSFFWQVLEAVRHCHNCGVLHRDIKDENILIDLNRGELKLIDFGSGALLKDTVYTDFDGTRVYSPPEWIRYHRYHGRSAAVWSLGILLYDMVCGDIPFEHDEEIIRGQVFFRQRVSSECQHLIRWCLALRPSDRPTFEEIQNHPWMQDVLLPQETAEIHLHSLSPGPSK

| IC50 (Pim-2; Km ATP concentration rather than 1 mM, read-out: Pim2 IC50 at Km ATP concentration) [nM] | SMILES | IC50 (Pim-1) [nM] | IC50 (Pim-2; 1 mM ATP, class symbols, read-out: Pim2 IC50) [nM] | IC50 (Pim-3) [nM] |
| --- | --- | --- | --- | --- |
| – | C[C@H]1CN(c2c(NC(=O)c3ccc(F)c(-c4c(F)cccc4F)n3)cnc3c2CCC3O)C[C@@H](N)[C@@H]1O (mixture of isomers) [Example 37 (mixture of diastereoisomers), N-{4-[(3R,4R,5S)-3-Amino-4-hydroxy-5-methylpiperidin-1-yl]-7-hydroxy-6,7-dihydro-5H-cyclopenta[b]pyridin-3-yl}-6-(2,6-difluorophenyl)-5-fluoropyridine-2-carboxamide] | ≤ 100 | ≤ 100 | ≤ 100 |
| 100 to 1000 | N[C@H]1CCCN(c2c(NC(=O)c3csc(-c4c(F)cccc4F)n3)cnc3ccccc23)C1 [Example 2, N-{4-[(3S)-3-Aminopiperidin-1-yl]quinolin-3-yl}-2-(2,6-difluorophenyl)-1,3-thiazole-4-carboxamide] | – | – | – |
